In patent US20110098309A1, “METHODS OF INHIBITING THE FORMATION OF AMYLOID-BETA DIFFUSABLE LIGANDS USING ACYLHYDRAZIDE COMPOUNDS” (priority 2007, published 2011):

biological target: Aβ1-42 (Homo sapiens, UniProt P05067); experiment: FRET assay of Aβ1-42 oligomer (ADDL) assembly inhibition; format: biochemical; details: 0.2 μM FITC-Aβ(1-42) and 0.8 μM Aβ(1-42), 37° C., six concentrations from about 10 μM to about 0.03 μM
From the text: Fluorescence (or Förster) Resonance Energy Transfer (FRET) is a distance-dependent, non-radiative transfer of energy in which the de-excitation of one fluorophore (donor) is coupled to excitation of another fluorophore (acceptor). FRET occurs if (1) the quantum of energy emitted by a donor fluorophore corresponds to an acceptor fluorophore's excitation energy, (2) the orientations of donor and acceptor transition dipoles are nearly parallel and (3) the donor fluorescent emission spectrum overlaps the acceptor absorption spectrum.
In this assay, assembly of Aβ1-42 oligomer formation is monitored by FRET using N-terminal conjugates of fluorescein-Aβ1-42 as both the donor and acceptor fluorophore (fluorescein-fluorescein Ro˜45 Å). […] Inhibition of Aβ1-42 assembly is observed as the absence or attenuation of fluorescein quenching.
FRET and FP assays are performed in 384-well Corning Non-Binding Surface, black, opaque microtiter plates, and the assay buffer consists of 25 mM MOPS-Tris (pH 8.0) with 100 mM MgCl2. The assay volume, containing 0.2 μM FITC-Aβ(1-42) and 0.8 μM Aβ(1-42), is 50 μl and the temperature is 37° C. […] Kinetic traces are collected by recording fluorescence intensity and polarization readings every five minutes over about a three hour time course. […] Positive control reactions contain all buffer components in the absence of added small molecule or antibody reagents. To test for ADDL assembly inhibition, the compound was incubated with the peptide mixture at six concentrations from about 10 μM decreasing to about 0.03 μM.

Sequence of Aβ1-42 (P05067 672-713 limits assumed): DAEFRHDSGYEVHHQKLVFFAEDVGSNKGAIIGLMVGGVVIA

Structure (SMILES) | IC50 [µM]
O=C(C/C(=N/NC(=O)c1[nH]c2ccccc2c1Cl)C(F)(F)F)c1cccs1 [Compound 30, 3-chloro-N′-(1,1,1-trifluoro-4-oxo-4-(thiophen-2-yl)butan-2-ylidene)-1H-indole-2-carbohydrazide] | 28.3
O=C(C/C(=N\NC(=O)c1sc2cc(F)ccc2c1Cl)C(F)(F)F)c1ccco1 [Compound 31, 3-chloro-6-fluoro-N′-(1,1,1-trifluoro-4-(furan-2-yl)-4-oxobulan-2-ylidene)benzo[b]thiophene-2-carbohydrazide] | 30.2
C/C(CC(N)=O)=N\NC(=O)c1ccccc1O [Compound 32, 3-(2-(2-hydroxybenzoyl)hydrazono)butanamide] | 35
Cc1ccc(C(=O)N/N=C(/CC(=O)c2cccs2)C(F)(F)F)cc1 [Compound 33, 4-methyl-N′-(1,1,1-trifluoro-4-oxo-4-(thiophen-2-yl)butan-2-ylidene)benzohydrazide] | 40.8
O=C(C/C(=N/NC(=O)c1cnn(-c2ccccc2)c1C(F)(F)F)C(F)(F)F)c1cccs1 [Compound 34, 1-phenyl-N′-(1,1,1-trifluoro-4-oxo-4-(thiophen-2-yl)butan-2-ylidene)-5-(trifluoromethyl)-1H-pyrazole-4-carbohydrazide] | 40.9
O=C(C/C(=N/NC(=O)c1c(F)cccc1F)C(F)(F)F)c1cccs1 [Compound 35, 2,6-difluoro-N′-(1,1,1-trifluoro-4-oxo-4-(thiophen-2-yl)butan-2-ylidene)benzohydrazide] | 41.2
Cc1occc1C(=O)N/N=C/c1cc(Br)cc(Br)c1O [Compound 49, N′-(3,5-dibromo-2-hydroxy-benzylidene)-2-methylfuran-3-carbohydrazide] | 3.8
O=C(N/N=C/c1cc(Br)ccc1O)c1ccccc1O [Compound 50, N′-(5-bromo-2-hydroxy-benzylidene)-2-hydroxybenzohydrazide] | 4.1
COc1ccc(O)c(/C=N/NC(=O)c2ccc(Cl)cc2O)c1 [Compound 51, 4-chloro-2-hydroxy-N′-(2-hydroxy-5-methoxy-benzylidene)benzohydrazide] | 4.2
COc1ccc(O)c(/C=N/NC(=O)c2cccc3c2NC(=O)C3)c1 [Compound 52, N′-(2-hydroxy-5-methoxy-benzylidene)-2-oxoindoline-7-carbohydrazide] | 4.2
Cc1ccc(C(=O)N/N=C/c2cccc(C)c2O)cn1 [Compound 53, N′-(2-hydroxy-3-methyl-benzylidene)-6-methylnicotino-hydrazide] | 4.6
Cn1cc(I)c(C(=O)N/N=C/c2c(O)ccc3ccccc23)n1 [Compound 54, N′-((2-hydroxy-naphthalen-1-yl)methylene)-4-iodo-1-methyl-1H-pyrazole-3-carbohydrazide] | 5
COc1cccc(O)c1/C=N/NC(=O)c1ccccc1O [Compound 55, 2-hydroxy-N′-(2-hydroxy-6-methoxy-benzylidene)benzohydrazide] | 5.3
COc1ccc(O)c(/C=N/NC(=O)c2ccc(-n3c(C)ccc3C)cc2)c1 [Compound 56, 4-(2,5-dimethyl-1H-pyrrol-1-yl)-N′-(2-hydroxy-5-methoxy-benzylidene) benzohydrazide] | 6.1
O=C(N/N=C/c1cc(OC(F)(F)F)ccc1O)c1ccccc1O [Compound 57, 2-hydroxy-N′-(2-hydroxy-5-(trifluoro-methoxy)benzylidene)benzohydrazide] | 6.3
COc1ccc(O)c(/C=N/NC(=O)c2cccc3cc[nH]c23)c1 [Compound 58, N′-(2-hydroxy-5-methoxy-benzylidene)-1H-indole-7-carbohydrazide] | 6.4
O=C(N/N=C/c1cc(Cl)ccc1O)c1ccccc1O [Compound 59, N′-(5-chloro-2-hydroxy-benzylidene)-2-hydroxy-benzohydrazide] | 6.5
C=CCc1cccc(/C=N/NC(=O)c2ccc(I)cc2)c1O [Compound 60, N′-(3-allyl-2-hydroxy-benzylidene)-4-iodo-benzohydrazide] | 6.5
O=C(N/N=C/c1c(O)ccc2ccccc12)c1sc2cc(F)ccc2c1Cl [Compound 61, 3-chloro-6-fluoro-N′-((2-hydroxynaphthalen-1-yl)methylene) benzo[b]thiophene-2-carbohydrazide] | 6.7
O=C(N/N=C/c1ccc(O)cc1O)c1ccccc1NS(=O)(=O)c1ccc(Cl)cc1 [Compound 62, 4-chloro-N-(2-(2-(2,4-dihydroxy-benzylidene)hydrazine-carbonyl)phenyl)benzene-sulfonamide] | 6.7
COc1ccc(O)c(/C=N/NC(=O)c2cccc(C)c2O)c1 [Compound 63, 2-hydroxy-N′-(2-hydroxy-5-methoxy-benzylidene)-3-methyl-benzohydrazide] | 7
NC(=O)c1ccccc1/C=N/NC(=O)c1ccccc1O [Compound 64, 2-((2-(2-hydroxybenzoyl)hydrazono)methyl)benzamide] | 7.1
Nc1ccc(Cl)cc1/C=N/NC(=O)c1ccccc1O [Compound 65, N′-(2-amino-5-chloro-benzylidene)-2-hydroxy-benzohydrazide] | 7.5
COc1ccc(O)c(/C=N/NC(=O)c2c(O)ccc3ccccc23)c1 [Compound 66, 2-hydroxy-N′-(2-hydroxy-5-methoxy-benzylidene)-1-naphtho-hydrazide] | 7.7
COc1ccc(O)c(/C=N/NC(=O)c2ccc(F)cc2O)c1 [Compound 67, 4-fluoro-2-hydroxy-N′-(2-hydroxy-5-methoxy-benzylidene)benzohydrazide] | 8.3
Cc1ccc(O)c(/C=N/NC(=O)c2ccccc2O)c1 [Compound 68, 2-hydroxy-N′-(2-hydroxy-5-methyl-benzylidene)benzohydrazide] | 9.2
O=C(N/N=C/c1cc(Cl)cc(Cl)c1O)c1ccccc1O [Compound 69, N′-(3,5-dichloro-2-hydroxy-benzylidene)-2-hydroxy-benzohydrazide] | 9.2
COc1ccc(O)c(/C=N/NC(=O)c2scc(C)c2Cl)c1 [Compound 70, 3-chloro-N′-(2-hydroxy-5-methoxy-benzylidene)-4-methylthiophene-2-carbohydrazide] | 9.4
COc1ccc(O)c(/C=N/NC(=O)c2ccccc2NS(=O)(=O)c2ccc(Cl)cc2)c1 [Compound 71, 4-chloro-N-(2-(2-(2-hydroxy-5-methoxy-benzylidene)hydrazine-carbonyl)phenyl)benzene-sulfonamide] | 9.7

More lines, now with the values ahead:

IC50 [µM] | Structure (SMILES)
1 | COc1ccc(O)c(/C=N/NC(=O)c2ccc(-n3cccc3)cc2O)c1 [Compound 36, 2-hydroxy-N′-(2-hydroxy-5-methoxy-benzylidene)-4-(1H-pyrrol-1-yl) benzohydrazide]
1.2 | COc1ccc(O)c(/C=N/NC(=O)c2cc3ccccc3cc2O)c1 [Compound 37, 3-hydroxy-N′-(2-hydroxy-5-methoxy-benzylidene)-2-naphtho hydrazide]
1.2 | COc1ccc(O)c(/C=N/NC(=O)c2ccc3ccccc3c2O)c1 [Compound 38, 1-hydroxy-N′-(2-hydroxy-5-methoxybenzylidene)-2-naphtho-hydrazide]
1.6 | O=C(N/N=C/c1cc(Br)cc(I)c1O)c1cccc(F)c1 [Compound 39, N′-(5-bromo-2-hydroxy-3-iodobenzylidene)-3-fluoro-benzohydrazide]
2.1 | O=C(N/N=C/c1cc(F)cc(Cl)c1O)c1ccccc1O [Compound 40, N′-(3-chloro-5-fluoro-2-hydroxybenzylidene)-2-hydroxy-benzohydrazide]
2.3 | O=C(N/N=C/c1c(O)cccc1O)c1ccccc1O [Compound 41, N′-(2,6-dihydroxybenzylidene)-2-hydroxy benzohydrazide]
2.8 | O=C(N/N=C/c1cc(Br)cc(Br)c1O)c1ccccc1O [Compound 42, N′-(3,5-dibromo-2-hydroxybenzylidene)-2-hydroxybenzohydrazide]
3.2 | O=C(N/N=C/c1c(O)ccc2ccccc12)c1ccccc1NS(=O)(=O)c1ccc(Cl)cc1 [Compound 43, 4-chloro-N-(2-(2-((2-hydroxynaphthalen-1-yl)methylene)hydrazinecarbonyl)phenyl) benzenesulfonamide]
3.2 | COc1ccc(O)c(/C=N/NC(=O)c2[nH]c3ccccc3c2Cl)c1 [Compound 44, 3-chloro-N′-(2-hydroxy-5-methoxybenzylidene)-1H-indole-2-carbohydrazide]
3.3 | O=C(N/N=C/c1c(O)cccc1Br)c1ccccc1O [Compound 45, N′-(2-bromo-6-hydroxybenzylidene)-2-hydroxybenzo-hydrazide]
3.3 | O=C(N/N=C/c1cc(C2CCCCC2)cc(Cl)c1O)c1ccccc1O [Compound 46, N′-(3-chloro-5-cyclohexyl-2-hydroxybenzylidene)-2-hydroxybenzo-hydrazide]
3.5 | CC(C)(C)c1ccc(O)c(/C=N/NC(=O)c2ccccc2O)c1 [Compound 47, N′-(5-tert-butyl-2-hydroxybenzylidene)-2-hydroxy-benzohydrazide]
3.7 | COc1cccc(-c2ccc(O)c(/C=N/NC(=O)c3ccccc3O)c2)c1 [Compound 48, 2-hydroxy-N′-((4-hydroxy-3′-methoxybiphenyl-3-yl)methylene) benzohydrazide]
